Experimental data taken from ChEMBL document CHEMBL1139073, “Inhibition of Src kinase activity by 7-ethynyl-4-phenylamino-3-quinolinecarbonitriles: identification of SKS-927” (Bioorg Med Chem Lett, 2007).
Converted amounts (≈) assume the structure as drawn.

Columns and labels:
[1] = biological target: Proto-oncogene tyrosine-protein kinase Src (Homo sapiens, UniProt P12931); assay: Inhibition of Src activity; assay type: functional
[2] = biological target: Proto-oncogene tyrosine-protein kinase Src (Rattus norvegicus, UniProt Q9WUD9); assay: Inhibition of Src in rat fibroblasts
Chain of Proto-oncogene tyrosine-protein kinase Src (Rattus norvegicus, UniProt Q9WUD9) (Q9WUD9 2-536 limits assumed): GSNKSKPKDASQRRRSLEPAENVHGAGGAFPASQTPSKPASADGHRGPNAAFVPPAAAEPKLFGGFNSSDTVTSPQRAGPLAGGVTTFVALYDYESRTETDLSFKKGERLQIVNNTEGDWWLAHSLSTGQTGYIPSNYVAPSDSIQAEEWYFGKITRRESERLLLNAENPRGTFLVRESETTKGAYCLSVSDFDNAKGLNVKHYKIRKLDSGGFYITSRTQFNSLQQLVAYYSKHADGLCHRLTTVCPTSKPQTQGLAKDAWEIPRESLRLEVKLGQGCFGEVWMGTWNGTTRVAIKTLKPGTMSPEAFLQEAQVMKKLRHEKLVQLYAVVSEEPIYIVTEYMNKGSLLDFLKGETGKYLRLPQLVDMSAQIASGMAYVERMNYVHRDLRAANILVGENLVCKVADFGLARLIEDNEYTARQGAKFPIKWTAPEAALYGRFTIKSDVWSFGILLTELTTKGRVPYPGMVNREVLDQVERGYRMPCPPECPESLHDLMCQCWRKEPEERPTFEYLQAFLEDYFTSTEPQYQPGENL

[3] = biological target: RAC-alpha serine/threonine-protein kinase (Homo sapiens, UniProt P31749); assay: Inhibition of AKT
Chain of RAC-alpha serine/threonine-protein kinase (P31749 whole entry): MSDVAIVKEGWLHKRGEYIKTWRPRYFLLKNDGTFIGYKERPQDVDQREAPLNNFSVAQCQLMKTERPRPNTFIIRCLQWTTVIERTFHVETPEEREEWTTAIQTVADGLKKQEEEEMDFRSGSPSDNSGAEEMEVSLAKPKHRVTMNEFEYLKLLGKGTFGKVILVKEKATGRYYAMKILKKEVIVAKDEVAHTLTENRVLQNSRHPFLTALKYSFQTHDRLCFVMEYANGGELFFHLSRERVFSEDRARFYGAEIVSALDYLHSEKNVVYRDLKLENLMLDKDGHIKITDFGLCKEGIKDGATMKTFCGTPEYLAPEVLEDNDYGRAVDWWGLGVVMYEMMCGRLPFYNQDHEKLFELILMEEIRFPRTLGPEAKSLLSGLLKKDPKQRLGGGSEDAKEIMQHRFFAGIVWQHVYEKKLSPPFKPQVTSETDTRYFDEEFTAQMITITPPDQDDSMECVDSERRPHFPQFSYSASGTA

[4] = biological target: Cyclin-dependent kinase 4 (Homo sapiens, UniProt P11802); assay: Inhibition of CDK4
Chain of Cyclin-dependent kinase 4 (P11802 whole entry): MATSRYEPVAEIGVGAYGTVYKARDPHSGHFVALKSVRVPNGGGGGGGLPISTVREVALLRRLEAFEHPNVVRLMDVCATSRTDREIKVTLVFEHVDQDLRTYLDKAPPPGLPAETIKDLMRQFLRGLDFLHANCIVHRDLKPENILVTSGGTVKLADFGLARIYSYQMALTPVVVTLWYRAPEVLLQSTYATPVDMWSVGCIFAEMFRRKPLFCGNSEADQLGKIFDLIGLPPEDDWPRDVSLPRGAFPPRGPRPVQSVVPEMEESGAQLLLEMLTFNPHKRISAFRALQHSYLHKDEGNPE

[5] = Inhibition of IGFR; set-up: species or system Homo sapiens
[6] = biological target: Vascular endothelial growth factor receptor 2 (Homo sapiens, UniProt P35968); assay: Inhibition of KDR
Chain of Vascular endothelial growth factor receptor 2 (P35968 whole entry): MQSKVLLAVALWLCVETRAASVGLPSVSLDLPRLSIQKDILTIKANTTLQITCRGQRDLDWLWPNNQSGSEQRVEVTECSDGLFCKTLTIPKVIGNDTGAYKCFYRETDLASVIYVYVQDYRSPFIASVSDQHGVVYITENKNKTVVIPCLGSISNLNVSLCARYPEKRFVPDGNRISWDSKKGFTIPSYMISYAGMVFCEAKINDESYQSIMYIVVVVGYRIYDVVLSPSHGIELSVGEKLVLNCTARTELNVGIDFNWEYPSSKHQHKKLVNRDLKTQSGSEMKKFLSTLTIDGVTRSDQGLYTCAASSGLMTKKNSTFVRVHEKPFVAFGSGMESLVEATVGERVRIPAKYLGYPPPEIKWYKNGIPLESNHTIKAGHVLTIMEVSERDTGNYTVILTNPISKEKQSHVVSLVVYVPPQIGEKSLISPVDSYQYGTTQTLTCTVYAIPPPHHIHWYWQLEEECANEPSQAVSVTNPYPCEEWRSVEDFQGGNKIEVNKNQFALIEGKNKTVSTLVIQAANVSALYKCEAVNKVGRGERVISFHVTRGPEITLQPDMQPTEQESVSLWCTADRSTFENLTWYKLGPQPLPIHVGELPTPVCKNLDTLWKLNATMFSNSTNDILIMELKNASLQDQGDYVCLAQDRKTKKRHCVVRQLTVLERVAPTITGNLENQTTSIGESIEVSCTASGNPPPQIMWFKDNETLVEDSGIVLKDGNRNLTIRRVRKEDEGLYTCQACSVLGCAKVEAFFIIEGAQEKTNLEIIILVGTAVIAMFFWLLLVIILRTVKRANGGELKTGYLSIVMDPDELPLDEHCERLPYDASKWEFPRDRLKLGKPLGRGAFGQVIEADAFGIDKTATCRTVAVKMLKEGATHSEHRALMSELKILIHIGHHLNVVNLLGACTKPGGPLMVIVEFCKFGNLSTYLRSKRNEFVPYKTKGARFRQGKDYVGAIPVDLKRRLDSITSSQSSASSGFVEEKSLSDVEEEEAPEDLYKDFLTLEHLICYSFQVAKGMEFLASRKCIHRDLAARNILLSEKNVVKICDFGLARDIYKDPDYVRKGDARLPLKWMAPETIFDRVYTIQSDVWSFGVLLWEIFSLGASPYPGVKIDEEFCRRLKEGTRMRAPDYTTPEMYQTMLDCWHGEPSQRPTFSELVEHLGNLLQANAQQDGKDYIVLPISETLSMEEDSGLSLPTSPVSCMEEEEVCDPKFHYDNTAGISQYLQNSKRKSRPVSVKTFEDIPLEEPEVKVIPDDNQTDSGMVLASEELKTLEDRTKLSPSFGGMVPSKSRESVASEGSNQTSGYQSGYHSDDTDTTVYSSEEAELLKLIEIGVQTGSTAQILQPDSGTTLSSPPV

[7] = Permeability across artificial membrane by PAMPA; assay type: ADME; conditions: read-out: permeability
[8] = Solubility at neutral pH; assay type: physicochemical
[9] = Solubility at pH 4.5; assay type: physicochemical; conditions: buffer
[10] = biological target: Epidermal growth factor receptor (Homo sapiens, UniProt P00533)
Chain of Epidermal growth factor receptor (P00533 whole entry): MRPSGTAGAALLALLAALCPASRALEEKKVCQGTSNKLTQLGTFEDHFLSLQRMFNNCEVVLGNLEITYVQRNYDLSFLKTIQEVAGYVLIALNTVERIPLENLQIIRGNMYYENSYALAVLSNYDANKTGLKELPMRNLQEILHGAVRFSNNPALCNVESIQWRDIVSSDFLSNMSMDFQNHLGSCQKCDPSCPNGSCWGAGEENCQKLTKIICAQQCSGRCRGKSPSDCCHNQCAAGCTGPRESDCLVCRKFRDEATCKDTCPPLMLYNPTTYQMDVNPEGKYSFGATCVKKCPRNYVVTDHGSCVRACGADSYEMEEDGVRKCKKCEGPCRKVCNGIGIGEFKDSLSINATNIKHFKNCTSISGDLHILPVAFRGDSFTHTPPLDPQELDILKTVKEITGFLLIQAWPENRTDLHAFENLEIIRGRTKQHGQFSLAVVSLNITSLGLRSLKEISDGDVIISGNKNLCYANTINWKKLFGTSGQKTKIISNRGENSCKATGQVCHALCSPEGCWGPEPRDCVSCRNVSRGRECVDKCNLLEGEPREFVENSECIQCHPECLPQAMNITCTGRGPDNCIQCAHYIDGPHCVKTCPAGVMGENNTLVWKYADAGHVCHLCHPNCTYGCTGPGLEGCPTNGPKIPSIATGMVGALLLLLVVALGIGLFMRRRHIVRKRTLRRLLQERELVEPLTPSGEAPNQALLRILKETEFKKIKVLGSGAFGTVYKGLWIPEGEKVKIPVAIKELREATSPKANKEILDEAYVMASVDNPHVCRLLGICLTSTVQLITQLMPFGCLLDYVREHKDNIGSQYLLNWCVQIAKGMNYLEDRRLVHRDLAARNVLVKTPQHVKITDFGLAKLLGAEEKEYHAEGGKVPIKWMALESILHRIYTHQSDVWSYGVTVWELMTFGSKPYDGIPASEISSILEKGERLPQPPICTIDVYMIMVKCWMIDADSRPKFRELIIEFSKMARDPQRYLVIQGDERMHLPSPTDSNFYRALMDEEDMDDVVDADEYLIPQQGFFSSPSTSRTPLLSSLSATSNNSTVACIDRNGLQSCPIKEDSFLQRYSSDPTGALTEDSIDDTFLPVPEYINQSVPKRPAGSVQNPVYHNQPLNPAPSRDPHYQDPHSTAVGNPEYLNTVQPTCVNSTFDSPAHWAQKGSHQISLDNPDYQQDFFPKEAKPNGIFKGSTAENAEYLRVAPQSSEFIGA

Chain of Proto-oncogene tyrosine-protein kinase Src (Homo sapiens, UniProt P12931) (P12931 2-536 limits assumed): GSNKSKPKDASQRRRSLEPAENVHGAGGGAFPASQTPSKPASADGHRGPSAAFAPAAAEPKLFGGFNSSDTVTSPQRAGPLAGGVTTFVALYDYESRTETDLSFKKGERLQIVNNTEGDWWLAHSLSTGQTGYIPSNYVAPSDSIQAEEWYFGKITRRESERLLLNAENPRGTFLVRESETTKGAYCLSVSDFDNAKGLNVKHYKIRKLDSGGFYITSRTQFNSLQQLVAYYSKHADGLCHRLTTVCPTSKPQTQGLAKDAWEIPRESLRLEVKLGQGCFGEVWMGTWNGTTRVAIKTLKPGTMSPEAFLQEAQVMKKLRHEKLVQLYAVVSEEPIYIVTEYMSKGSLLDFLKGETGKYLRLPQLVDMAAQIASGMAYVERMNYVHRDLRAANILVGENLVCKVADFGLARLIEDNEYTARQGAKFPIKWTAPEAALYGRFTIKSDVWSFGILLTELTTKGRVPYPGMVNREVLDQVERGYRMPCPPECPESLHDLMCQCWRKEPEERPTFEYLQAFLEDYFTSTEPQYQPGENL

IC50 [1] [µM] | IC50 [2] [µM] | Structure (SMILES) | further results
0.0054 | 0.52 | COc1cc(Nc2c(C#N)cnc3cc(C#CCCN4CCNCC4)c(OC)cc23)c(Cl)cc1Cl | 
 | 0.19 | COc1cc(Nc2c(C#N)cnc3cc(C#CCCN4CCOCC4)c(OC)cc23)c(Cl)cc1Cl | 
0.011 | 0.74 | COc1cc(Nc2c(C#N)cnc3cc(C#CCN4CCN(C)CC4)c(OC)cc23)c(Cl)cc1Cl | 
0.0041 | 0.13 | CCOc1cc2c(Nc3cc(OC)c(Cl)cc3Cl)c(C#N)cnc2cc1C#CCCN1CCN(C)CC1 | 
0.23 | 3.9 | COc1cc(Nc2c(C#N)cnc3ccc(C#CCCN4CCN(C)CC4)cc23)c(Cl)cc1Cl | 
0.0039 | 0.073 | COc1cc(Nc2c(C#N)cnc3cc(C#CCCN4CCN(C)CC4)c(OC)cc23)c(Cl)cc1Cl | IC50 [3]: > 5 µM; IC50 [4]: > 5 µM; IC50 [5]: > 5 µM; IC50 [6]: > 5 µM; Papp [7]: 6.8 ×10⁻⁶ cm/s; solubility [8]: 5 µg/mL (≈ 9.53 µM); solubility [9]: > 100 µg/mL; IC50 [10]: 0.72 µM

The remaining lines, values behind:

Structure (SMILES) | IC50 [1] [µM] | IC50 [2] [µM] | further results
COc1cc(Nc2c(C#N)cnc3cc(C#CCCN4CCN(C)CC4)ccc23)cc(OC)c1OC | 0.22 | 2.1 | 
COc1cc(Nc2c(C#N)cnc3cc(C#CCCN(C)C)c(OC)cc23)c(Cl)cc1Cl | 0.0049 | 0.25 | 
COc1cc2c(Nc3ccc(Cl)cc3Cl)c(C#N)cnc2cc1C#CCCN1CCN(C)CC1 | 0.0087 | 0.43 | 
COc1cc(Nc2c(C#N)cnc3cc(C#CCCN4CCN(C)CC4)ccc23)c(Cl)cc1Cl | 0.028 | 1.7 | 
COc1cc2c(Nc3cc(OC)c(OC)c(OC)c3)c(C#N)cnc2cc1C#CCCN1CCN(C)CC1 | 0.021 | 0.59 | 
